Laboratory results as given in patent US9187411B2, “Leukotriene B4 antagonist compound” (Eli Lilly and Company, priority 2012, dated 2015).
Marks after values point to notes of the source that are not given here.

Legend:
[1] = tested on: LTB4-induced phosphorylation of ERK in monocytes; assay: Mouse pERK assay in whole blood; assay type: cell-based, 129SvEv mice; conditions: Monocyte, 20 nM LTB4
Description: The ability of the compound of Example 2 to block LTB4-induced signaling through BLT1 was assessed in whole blood obtained from healthy human volunteers and from 129SvEv mice that are the model strain for preclinical AAA efficacy evaluation.
Whole blood is collected from 129SvEv mice in 50 mM EDTA (Gibco). For in vitro experiments, 10 point dose response curves of test compounds are assayed at final concentrations of 20 nM-10 μM. 10 point ½ serial dilutions of compound at 1000× of final assayed concentration are prepared in DMSO. Compound is then diluted to 10× in DPBS (DMSO concentration is now 1%). 10 μL of compound dilutions (at 10× diluted in DPBS) or 1% DMSO in DPBS are added to wells of a 96 deep well plate. 80 μL whole blood is added and incubated for 20 min at room temperature (10 μL of anti-mouse LY6G-FITC antibody (BD Pharmingen) and 10 μl of anti-mouse CD11b-APC BD Biosciences at 1 μg/mL final concentrations are added for final 10 min) 11 μL of 10× pre-warmed LTB4 (final concentration 20 nM) is added and incubated at 37° C. for 2 min. Reaction is stopped with 1.5 mL of 1× Phosflow Lyse/Fix from BD Biosciences (pre-warmed to 37° C.). The plate is sealed, vortexed, and incubated at 37° C. for 10 min. Cells are washed once with 1.5 mL DPBS then permeablized with 1 mL BD Perm/Wash buffer (BD Biosciences) for 10 min at room temperature. […]

[2] = tested on: BCA atherosclerosis lesions in LDLr KO mice; assay: LDLr KO mouse brachiocephalic arch atherosclerosis model; assay type: in vivo; conditions: for Lesion area: 4 weeks, vehicle 50,686; for Macrophage area (brown color): vehicle 18,571; for reduction of lesion area compared to vehicle / reduction of BCA cholesteryl ester (CE) content compared to vehicle: Table 3; for Cholesteryl ester: BCA, vehicle 22.50
Description: The compound of Example 2 is tested in the low density lipoprotein (LDL) receptor knock-out (LDLr KO) mouse model of atherosclerosis. Mice deficient in the ability to encode and synthesize the LDL receptor (LDLr KO) are hypercholesterolemic, especially when maintained on high cholesterol diet, Ishibashi et al. J. Clin. Invest. (1994), 93: 1885-1893. In the large arteries, LDLr KO mice develop spontaneous atherosclerotic lesions that mimic major features of the cellular, lipid, and extracellular matrix composition of human lesions. An important constituent of both human and mouse lesions is the lipid-laden macrophage or “foam cell” in the arterial subendothelium. The esterified cholesterol stored by macrophages is a surrogate for lesion development. Assay of esterified cholesterol directly from mouse arterial tissue (by LC/MS) provides a rapid index of lesion burden. The LDLr KO model used in the present study takes advantage of the rapid development of mature atherosclerotic plaques in the brachiocephalic artery (BCA). Primary endpoints for the study are arterial cholesteryl ester content and lesion dimensions obtained by light microscopic measurement of lesions in serial cross-sections of the artery.
LDLr KO mice (JAX #002207), 7 week old males, were obtained from The Jackson Laboratory (Bar Harbor, Me.). Upon arrival at the testing facility and continuing for a total of 10 weeks, mice were housed individually and fed the atherogenic diet TD.88137 (Teklad) ad libitum. During the first 6 weeks, the mice rested undisturbed in their cages. During the last 4 weeks, the mice received the test compound twice daily by oral gavage.

CCCc1c(NC(=O)CC(C)(C)C(=O)[O-])cccc1OCCCOc1cc(O)c(-c2ccc(F)cc2)cc1CC.[Na+] [Example 2, Sodium 4-[[3-[3-[2-ethyl-4-(4-fluorophenyl)-5-hydroxy-phenoxy]propoxy]-2-propyl-phenyl]amino]-2,2-dimethyl-4-oxo-butanoate]
IC50 [1]: 243 nM
Lesion area ([2]; 3 mg/kg BID oral gavage): 23700 µm²
Macrophage area vs. vehicle ([2]; 3 mg/kg BID, p < 0.02): −65%*
Lesion area vs. vehicle ([2]; 3 mg/kg BID, p < 0.049): −53%*
Cholesteryl ester vs. vehicle ([2]; 3 mg/kg BID, p = NS): −8%
Macrophage area (brown color) ([2]; 3 mg/kg BID): 6520 µm²
reduction of lesion area compared to vehicle ([2]; 3 mg/kg b.i.d.): 53%
Lesion area ([2]; 10 mg/kg BID oral gavage): 21200 µm²
Macrophage area vs. vehicle ([2]; 10 mg/kg BID, p < 0.002): −84%*
Lesion area vs. vehicle ([2]; 10 mg/kg BID, p < 0.034): −58%*
Cholesteryl ester vs. vehicle ([2]; 10 mg/kg BID, p < 0.09): −18%
Macrophage area (brown color) ([2]; 10 mg/kg BID): 2860 µm²
reduction of BCA cholesteryl ester (CE) content compared to vehicle ([2]; 10 mg/kg b.i.d., p<0.09): 18%
reduction of lesion area compared to vehicle ([2]; 10 mg/kg b.i.d.): 58%
Lesion area ([2]; 30 mg/kg BID oral gavage): 17100 µm²
Lesion area vs. vehicle ([2]; 30 mg/kg BID, p < 0.017): −66%*
Cholesteryl ester vs. vehicle ([2]; 30 mg/kg BID, p < 0.04): −23%*
Macrophage area vs. vehicle ([2]; 30 mg/kg BID, p < 0.09): −54%
Macrophage area (brown color) ([2]; 30 mg/kg BID): 8520 µm²
reduction of BCA cholesteryl ester (CE) content compared to vehicle ([2]; 30 mg/kg b.i.d., p<0.04): 23%
reduction of lesion area compared to vehicle ([2]; 30 mg/kg oral b.i.d., p<0.017): 66%
Cholesteryl ester ([2]; 3 mg/kg BID): 17.95 nmol
Cholesteryl ester ([2]; 10 mg/kg BID): 16.97 nmol
Cholesteryl ester ([2]; 30 mg/kg BID): 14.51 nmol
